# Data reported in ChEMBL document CHEMBL4725268, “Anticonvulsant and analgesic in neuropathic pain activity in a group of new aminoalkanol derivatives” (Bioorg Med Chem Lett, 2020).
# pKi: −log10 of the molar value. Calls of active or inactive are those of the source.
# Tests used:
# [1] = system: Mus musculus; assay: Anticonvulsant activity in ip dosed mouse assessed as protection against current-induced seizure by maximal electroshock seizure test; type: functional
# [2] = Toxicity in mouse assessed as lethality at 50 mg/kg, ip; type: organism-based; conditions: in vivo
# [3] = Toxicity in mouse assessed as lethality at 30 mg/kg, ip; type: organism-based; conditions: in vivo
# [4] = Toxicity in mouse assessed as lethality at 20 mg/kg, ip; type: organism-based; conditions: in vivo
# [5] = Toxicity in ip dosed mouse assessed as motor impairment by rotarod test; type: organism-based; conditions: in vivo
# [6] = Protection index, ratio of TD50 for toxicity in ip dosed mouse to ED50 for anticonvulsant activity in ip dosed mouse; type: organism-based; conditions: in vivo, read-out: PI
# [7] = target: T1, 5-hydroxytryptamine receptor 1A (Homo sapiens, UniProt P08908); assay: Binding affinity to 5-HT1A (unknown origin)
# T1 sequence (P08908 whole entry): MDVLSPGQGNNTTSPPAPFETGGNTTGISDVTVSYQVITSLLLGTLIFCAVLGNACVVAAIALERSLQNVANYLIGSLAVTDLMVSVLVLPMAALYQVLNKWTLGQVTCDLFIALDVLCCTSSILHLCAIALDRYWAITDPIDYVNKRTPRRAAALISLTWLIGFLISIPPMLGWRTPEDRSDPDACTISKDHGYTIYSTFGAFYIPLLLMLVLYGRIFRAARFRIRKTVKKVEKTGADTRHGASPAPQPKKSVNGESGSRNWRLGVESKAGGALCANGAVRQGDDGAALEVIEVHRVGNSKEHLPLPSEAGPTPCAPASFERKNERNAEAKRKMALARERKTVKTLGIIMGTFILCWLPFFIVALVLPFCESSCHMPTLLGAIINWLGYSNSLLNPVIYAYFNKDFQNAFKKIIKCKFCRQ
# [8] = system: Enterococcus faecalis; assay: Antimicrobial activity against Enterococcus faecalis ATCC 29212 assessed as reduction in bacterial growth at 0.195 to 100 ug/ml by serial dilution method; type: organism-based; conditions: in vivo, dose 0.195-100 µg/ml
# [9] = system: Escherichia coli; assay: Antimicrobial activity against Escherichia coli ATCC 25922 assessed as reduction in bacterial growth at 0.195 to 100 ug/ml by serial dilution method; type: organism-based; conditions: in vivo, dose 0.195-100 µg/ml
# [10] = system: Escherichia coli; assay: Antimicrobial activity against Escherichia coli ATCC 35218 assessed as reduction in bacterial growth at 0.195 to 100 ug/ml by serial dilution method; type: organism-based; conditions: in vivo, dose 0.195-100 µg/ml
# [11] = system: Staphylococcus aureus; assay: Antimicrobial activity against Staphylococcus aureus ATCC 25923 assessed as reduction in bacterial growth at 0.195 to 100 ug/ml by serial dilution method; type: organism-based; conditions: in vivo, dose 0.195-100 µg/ml
# [12] = system: Staphylococcus aureus; assay: Antimicrobial activity against clinical strain Staphylococcus aureus assessed as reduction in bacterial growth at 0.195 to 100 ug/ml by serial dilution method; type: organism-based; conditions: in vivo, dose 0.195-100 µg/ml
# [13] = system: Salmonella enterica; assay: Antimicrobial activity against Salmonella enterica ATCC 51957 assessed as reduction in bacterial growth at 0.195 to 100 ug/ml by serial dilution method; type: organism-based; conditions: in vivo, dose 0.195-100 µg/ml
# [14] = system: Bacteroides fragilis; assay: Antimicrobial activity against Bacteroides fragilis ATCC 25285 assessed as reduction in bacterial growth at 0.195 to 100 ug/ml by disk diffusion method; type: organism-based; conditions: in vivo, dose 0.195-100 µg/ml
# [15] = system: Hoylesella loescheii; assay: Antimicrobial activity against Prevotella loescheii ATCC 15930 assessed as reduction in bacterial growth at 0.195 to 100 ug/ml by disk diffusion method; type: organism-based, DSM 19665 = JCM 12249 = ATCC 15930; conditions: in vivo, dose 0.195-100 µg/ml
# [16] = Antimicrobial activity against clinical strain Bifidobacterium assessed as reduction in bacterial growth at 0.195 to 100 ug/ml by disk diffusion method; conditions: dose 0.195-100 µg/ml
# [17] = system: Clostridioides difficile; assay: Antimicrobial activity against clinical strain Clostridium difficile assessed as reduction in bacterial growth at 0.195 to 100 ug/ml by disk diffusion method; type: organism-based; conditions: in vivo, dose 0.195-100 µg/ml
# [18] = Antioxidant activity assessed as DPPH radical scavenging activity at 125 to 1000 uM by microplate method; type: functional; conditions: dose microM 125-1000
# [19] = Toxicity in mouse assessed as lethality at 10 mg/kg, ip; type: organism-based; conditions: in vivo
# [20] = system: Mus musculus; assay: Antiallodynic activity in mouse model of OXA-induced peripheral neuropathy assessed as mean latency time to nocifensive response at 18 mg/kg, ip administered after 3 hrs of OXA stimulation and measured after 1 hr by cold plate method (reference value: 59.76 +/- 0.16 sec); type: functional
# [21] = system: Mus musculus; assay: Antiallodynic activity in mouse model of OXA-induced peripheral neuropathy assessed as mean paw withdrawal threshold at 18 mg/kg, ip administered after 3 hrs of OXA stimulation and measured after 1 hr by Von-frey method (reference value: 3.144 +/- 0.169 g); type: functional
# [22] = system: Mus musculus; assay: Antiallodynic activity in mouse model of OXA-induced peripheral neuropathy assessed as mean latency time to nocifensive response at 18 mg/kg, ip administered after 7 days of OXA stimulation and measured after 1 hr by cold plate method (reference value: 57.64 +/- 1.267 sec); type: functional
# [23] = system: Mus musculus; assay: Antiallodynic activity in mouse model of OXA-induced peripheral neuropathy assessed as mean paw withdrawal threshold at 18 mg/kg, ip administered after 7 days of OXA stimulation and measured after 1 hr by Von-frey method (reference value: 3.192 +/- 0.181 g); type: functional
# [24] = target: T2, 5-hydroxytryptamine receptor 1A (Homo sapiens) (UniProt P08908); assay: Binding affinity to 5-HT1A (unknown origin) at 10^-5 M; conditions: dose 1.0 10^-5M
# T2 sequence (whole entry): T1 sequence (P08908 whole entry)
# [25] = Genotoxicity in Salmonella typhimurium TA100 assessed as number of revertant at 10 ug by AMES test (reference value: 64.3 to 130.7); type: toxicity, Salmonella enterica subsp. enterica serovar Typhimurium; conditions: in vivo; dose 10 µg
# [26] = Genotoxicity in Salmonella typhimurium TA100 assessed as number of revertant at 75 ug by AMES test (reference value: 64.3 to 130.7); type: toxicity, Salmonella enterica subsp. enterica serovar Typhimurium; conditions: in vivo; dose 75 µg
# [27] = Genotoxicity in Salmonella typhimurium TA100 assessed as number of revertant at 200 ug by AMES test (reference value: 64.3 to 130.7); type: toxicity, Salmonella enterica subsp. enterica serovar Typhimurium; conditions: in vivo; dose 200 µg
# [28] = Genotoxicity in Salmonella typhimurium TA100 assessed as number of revertant at 500 ug by AMES test (reference value: 64.3 to 130.7); type: toxicity, Salmonella enterica subsp. enterica serovar Typhimurium; conditions: in vivo; dose 500 µg
# [29] = Genotoxicity in Salmonella typhimurium TA100 assessed as number of revertant at 1000 ug by AMES test (reference value: 64.3 to 130.7); type: toxicity, Salmonella enterica subsp. enterica serovar Typhimurium; conditions: in vivo; dose 1000 µg
# [30] = Genotoxicity in Salmonella typhimurium TA100 assessed as mutagenic index at 10 ug by AMES test; type: toxicity, Salmonella enterica subsp. enterica serovar Typhimurium; conditions: in vivo; dose 10 µg
# [31] = Genotoxicity in Salmonella typhimurium TA100 assessed as mutagenic index at 75 ug by AMES test; type: toxicity, Salmonella enterica subsp. enterica serovar Typhimurium; conditions: in vivo; dose 75 µg
# [32] = Genotoxicity in Salmonella typhimurium TA100 assessed as mutagenic index at 200 ug by AMES test; type: toxicity, Salmonella enterica subsp. enterica serovar Typhimurium; conditions: in vivo; dose 200 µg
# [33] = Genotoxicity in Salmonella typhimurium TA100 assessed as mutagenic index at 500 ug by AMES test; type: toxicity, Salmonella enterica subsp. enterica serovar Typhimurium; conditions: in vivo; dose 500 µg
# [34] = Genotoxicity in Salmonella typhimurium TA100 assessed as mutagenic index at 1000 ug by AMES test; type: toxicity, Salmonella enterica subsp. enterica serovar Typhimurium; conditions: in vivo; dose 1000 µg
# [35] = Genotoxicity in Salmonella typhimurium TA98 assessed as number of revertant at 10 ug by AMES test (reference value: 8 to 8.3); type: toxicity, Salmonella enterica subsp. enterica serovar Typhimurium; conditions: in vivo; dose 10 µg
# [36] = Genotoxicity in Salmonella typhimurium TA98 assessed as number of revertant at 75 ug by AMES test (reference value: 8 to 8.3); type: toxicity, Salmonella enterica subsp. enterica serovar Typhimurium; conditions: in vivo; dose 75 µg
# [37] = Genotoxicity in Salmonella typhimurium TA98 assessed as number of revertant at 200 ug by AMES test (reference value: 8 to 8.3); type: toxicity, Salmonella enterica subsp. enterica serovar Typhimurium; conditions: in vivo; dose 200 µg
# [38] = Genotoxicity in Salmonella typhimurium TA98 assessed as number of revertant at 500 ug by AMES test (reference value: 8 to 8.3); type: toxicity, Salmonella enterica subsp. enterica serovar Typhimurium; conditions: in vivo; dose 500 µg
# [39] = Genotoxicity in Salmonella typhimurium TA98 assessed as number of revertant at 750 ug by AMES test (reference value: 8 to 8.3); type: toxicity, Salmonella enterica subsp. enterica serovar Typhimurium; conditions: in vivo; dose 750 µg
# [40] = Genotoxicity in Salmonella typhimurium TA98 assessed as mutagenic index at 10 ug by AMES test; type: toxicity, Salmonella enterica subsp. enterica serovar Typhimurium; conditions: in vivo; dose 10 µg
# [41] = Genotoxicity in Salmonella typhimurium TA98 assessed as mutagenic index at 75 ug by AMES test; type: toxicity, Salmonella enterica subsp. enterica serovar Typhimurium; conditions: in vivo; dose 75 µg
# [42] = Genotoxicity in Salmonella typhimurium TA98 assessed as mutagenic index at 200 ug by AMES test; type: toxicity, Salmonella enterica subsp. enterica serovar Typhimurium; conditions: in vivo; dose 200 µg
# [43] = Genotoxicity in Salmonella typhimurium TA98 assessed as mutagenic index at 500 ug by AMES test; type: toxicity, Salmonella enterica subsp. enterica serovar Typhimurium; conditions: in vivo; dose 500 µg
# [44] = Genotoxicity in Salmonella typhimurium TA98 assessed as mutagenic index at 750 ug by AMES test; type: toxicity, Salmonella enterica subsp. enterica serovar Typhimurium; conditions: in vivo; dose 750 µg
smiles,measurement,setting,value
Cc1ccc(OCCOCCN[C@H](C)CO)c(C)c1,ED50,[1],27.4 mg/kg
same,Activity,[2],Non-Toxic
same,Activity,[3],Non-Toxic
same,Activity,[4],Non-Toxic
same,TD50,[5],93.2 mg/kg
same,selectivity ratio,[6],3.4
same,pKi,[7],5.32
same,Activity,[8],Non-Toxic
same,Activity,[9],Non-Toxic
same,Activity,[10],Non-Toxic
same,Activity,[11],Non-Toxic
same,Activity,[12],Non-Toxic
same,Activity,[13],Non-Toxic
same,Activity,[14],Non-Toxic
same,Activity,[15],Non-Toxic
same,Activity,[16],Non-Toxic
same,Activity,[17],Non-Toxic
Cc1cc(C)c(C)c(OCCCN2CCC(O)CC2)c1,Activity,[18],inactive
same,ED50,[1],17.7 mg/kg
same,Activity,[19],Non-Toxic
same,TD50,[5],63.4 mg/kg
same,selectivity ratio,[6],3.58
same,Time,[20],15.167 s
same,Activity,[21],1.921 g
same,Time,[22],8.833 s
same,Activity,[23],2.027 g
same,Activity,[24],inactive
same,Activity,[25],66
same,Activity,[26],52.3
same,Activity,[27],42
same,Activity,[28],944
same,Activity,[29],1190
same,Activity_index,[30],1
same,Activity_index,[31],0.8
same,Activity_index,[32],0.7
same,Activity_index,[33],14.7
same,Activity_index,[34],18.5
same,Activity,[35],12
same,Activity,[36],15.3
same,Activity,[37],11
same,Activity,[38],6.7
same,Activity,[39],364.3
same,Activity_index,[40],1.4
same,Activity_index,[41],1.8
same,Activity_index,[42],1.3
same,Activity_index,[43],0.8
same,Activity_index,[44],43.7
same,Activity,[8],Non-Toxic
same,Activity,[9],Non-Toxic
same,Activity,[10],Non-Toxic
same,Activity,[11],Non-Toxic
same,Activity,[12],Non-Toxic
same,Activity,[13],Non-Toxic
same,Activity,[14],Non-Toxic
same,Activity,[15],Non-Toxic
same,Activity,[16],Non-Toxic
same,Activity,[17],Non-Toxic
